The structures appear in SMILES notation. Where a name gives a salt, the structure may show the parent alone.

A word on the IC50: it is the point on the concentration scale where inhibition reaches its midpoint.

In one experiment the test system is asynchronous 3D7 chloroquine-sensitive P. falciparum infected red blood cells. Nature of the experiment: Labeled hypoxanthine incorporation assay (in vitro anti-malarial activity). The format is cell-based. As to conditions: Plasmodium falciparum, 3D7, Erythrocyte, 3D7 chloroquine-sensitive strain, infected RBC, 48 h contact, [3H]-hypoxanthine incorporation; two independent experiments in duplicates; read-out: IC50 assessed on Plasmodium Falciparum.
As to `O=C(OCCCN(CCCc1ccccc1)Cc1ccccc1)N1CCC(n2c(=O)[nH]c3ccccc32)CC1` [Compound 148, 3-(benzyl(3-phenylpropyl)amino)propyl 4-(2-oxo-2,3-dihydro-1H-benzo[d]imidazol-1-yl)piperidine-1-carboxylate hydrochloride], the IC50 was determined as 4610 nM.

With `COc1ccccc1CN(CCOC(=O)N1CCC(n2c(=O)[nH]c3ccccc32)CC1)Cc1ccccc1` [Compound 151, 2-(benzyl(2-methoxybenzyl)amino)ethyl 4-(2-oxo-2,3-dihydro-1H-benzo[d]imidazol-1-yl)piperidine-1-carboxylate], the half-maximal inhibitory concentration (IC50) is 4660 nM.

Consider `CCCc1ccc(S(=O)(=O)N(c2ccccc2)C2CCN(C(=O)OC[C@H](C)N(Cc3ccccc3)Cc3ccccc3)CC2)cc1` [Compound 154, (S)-2-(dibenzylamino)propyl 4-(N-phenyl-4-propylphenylsulfonamido)piperidine-1-carboxylate], for which the IC50 was determined as 1590 nM.

Consider `COc1ccc(S(=O)(=O)N(c2ccccc2)C2CCN(C(=O)OC[C@H](Cc3ccccc3)N(Cc3ccccc3)Cc3ccccc3)CC2)cc1` [Compound 157, (S)-2-(dibenzylamino)-3-phenylpropyl 4-(N-phenyl-4-methoxyphenylsulfonamido)piperidine-1-carboxylate], for which the IC50 was 828 nM.

On to `C[C@@H](COC(=O)N1CCC(N(c2ccccc2)S(=O)(=O)c2ccc(C(F)(F)F)cc2)CC1)N(Cc1ccccc1)Cc1ccccc1` [Compound 158, (S)-2-(dibenzylamino)propyl 4-(N-phenyl-4-(trifluoromethyl)phenylsulfonamido)piperidine-1-carboxylate], for which the IC50 stood at 355 nM.

Regarding `C[C@@H](COC(=O)N1CCC(N(c2ccccc2)S(=O)(=O)c2cccc3ccccc23)CC1)N(Cc1ccccc1)Cc1ccccc1` [Compound 161, (S)-2-(dibenzylamino)propyl 4-(N-phenyl-naphthalen-1-ylsulfonamido)piperidine-1-carboxylate], the IC50 was found to be 290 nM.

In the case of `O=C(OC[C@H](Cc1ccccc1)N(Cc1ccccc1)Cc1ccccc1)N1CCC(N(c2ccccc2)S(=O)(=O)c2cccc3ccccc23)CC1` [Compound 162, (S)-2-(dibenzylamino)-3-phenylpropyl 4-(N-phenyl-naphthalen-1-ylsulfonamido)piperidine-1-carboxylate], the half-inhibitory concentration (IC50) was 1330 nM.

As for `C[C@@H](COC(=O)N1CCC(Nc2ccccc2S(=O)(=O)c2ccccc2)CC1)N(Cc1ccccc1)Cc1ccccc1` [Compound 164, (S)-2-(dibenzylamino)propyl 4-(2-(phenylsulfonyl)phenylamino)piperidine-1-carboxylate], the half-inhibitory concentration (IC50) stood at 1260 nM.

On to `C[C@@H](COC(=O)N1CCC(N(C)c2ccccc2)CC1)N(Cc1ccccc1)Cc1ccccc1` [Compound 166, (S)-2-(dibenzylamino)propyl 4-(N-methyl-N-phenylamino)piperidine-1-carboxylate], for which the half-maximal inhibitory concentration (IC50) worked out at 3690 nM.

As to `C[C@@H](COC(=O)N1CCC(N(c2ccccc2)S(=O)(=O)c2ccc(-c3ccccc3)cc2)CC1)N(Cc1ccccc1)Cc1ccccc1` [Compound 170, (S)-2-(dibenzylamino)propyl 4-(N-phenyl-biphenyl-4-sulfonamido)piperidine-1-carboxylate], the IC50 was 2200 nM.

For `C[C@@H](COC(=O)N1CCC(N(c2ccccc2)S(=O)(=O)c2ccc3ccccc3c2)CC1)N(Cc1ccccc1)Cc1ccccc1` [Compound 171, (S)-2-(dibenzylamino)propyl 4-(N-phenyl-naphthalen-2-ylsulfonamido)piperidine-1-carboxylate], the IC50 came out at 4430 nM.

As for `C[C@@H](COC(=O)N1CCC(Nc2ccccc2Sc2ccc(Cl)cc2)CC1)N(Cc1ccccc1)Cc1ccccc1` [Compound 173, (S)-2-(dibenzylamino)propyl 4-(2-(4-chlorophenylthio)phenylamino)piperidine-1-carboxylate], the IC50 stood at 2580 nM.

Regarding `Cc1cccc(C)c1NC1CCN(C(=O)OC[C@H](Cc2ccccc2)N(Cc2ccccc2)Cc2ccccc2)CC1` [Compound 174, (S)-2-(dibenzylamino)-3-phenylpropyl 4-(2,6-dimethylphenylamino)piperidine-1-carboxylate], the half-maximal inhibitory concentration (IC50) is 913 nM.

On to `CCc1cccc(CC)c1NC1CCN(C(=O)OC[C@H](Cc2ccccc2)N(Cc2ccccc2)Cc2ccccc2)CC1` [Compound 175, (S)-2-(dibenzylamino)-3-phenylpropyl 4-(2,6-diethylphenylamino)piperidine-1-carboxylate], for which the concentration for half-maximal inhibition (IC50) came to 2600 nM.

`CSc1ccccc1NC1CCN(C(=O)OC[C@H](Cc2ccccc2)N(Cc2ccccc2)Cc2ccccc2)CC1` [Compound 176, (S)-2-(dibenzylamino)-3-phenylpropyl 4-(2-(methylthio)phenylamino)piperidine-1-carboxylate]: the IC50 is 2650 nM.

In the next experiment the test system is Toxoplasma gondii RH-β1 strain. Nature of the experiment: microbe, parasite or virus in culture. The class given is cell-based. To be noted: Toxoplasma gondii, read-out: IC50 assessed on Toxoplama Gondii.
In the case of `CN(CCOC(=O)N1CCC(n2c(=O)[nH]c3ccccc32)CC1)Cc1ccccc1` [Compound 27, 2-(N-benzyl-N-methylamino)ethyl 4-(1,2-dihydro-2-oxobenzo[d]imidazol-3-yl)piperidine-1-carboxylate], the IC50 was 2 µM.

Regarding `O=C(OCCOCc1ccccc1)N1CCC(n2c(=O)[nH]c3ccccc32)CC1` [Compound 31, 2-(benzyloxy)ethyl 4-(1,2-dihydro-2-oxobenzo[d]imidazol-3-yl)piperidine-1-carboxylate], the IC50 was determined as 0.5 µM.

On to `O=C(OC1CCCN(Cc2ccccc2)C1)N1CCC(n2c(=O)[nH]c3ccccc32)CC1` (centres unmarked) [Compound 33, 1-benzylpiperidin-3-yl 4-(1,2-dihydro-2-oxobenzo[d]imidazol-3-yl)piperidine-1-carboxylate], for which the IC50 was 0.45 µM.

Consider `CC(C)N(CCOC(=O)N1CCC(n2c(=O)[nH]c3ccccc32)CC1)C(C)C` [Compound 34, 2-(diisopropylamino)ethyl 4-(1,2-dihydro-2-oxobenzo[d]imidazol-3-yl)piperidine-1-carboxylate], for which the half-maximal inhibitory concentration (IC50) amounted to 27 µM.

Consider `CN(C)CCOC(=O)N1CCC(n2c(=O)[nH]c3ccccc32)CC1` [Compound 35, 2-(dimethylamino)ethyl 4-(1,2-dihydro-2-oxobenzo[d]imidazol-3-yl)piperidine-1-carboxylate], for which the IC50 came to 4 µM.

Consider `CCN(CC)CCOC(=O)N1CCC(n2c(=O)[nH]c3ccccc32)CC1` [Compound 39, 2-(diethylamino)ethyl 4-(1,2-dihydro-2-oxobenzo[d]imidazol-3-yl)piperidine-1-carboxylate], for which the IC50 turned out to be 12 µM.

Turning to `C[C@@H](COC(=O)N1CCC(n2c(=O)n(C(=O)C(C)(C)C)c3ccccc32)CC1)N(Cc1ccccc1)Cc1ccccc1` [Compound 66, (S)-2-(dibenzylamino)propyl 4-(1,2-dihydro-2-oxo-1-(pivaloyl)benzo[d]imidazol-3-yl)piperidine-1-carboxylate], the IC50 turned out to be 2.8 µM.

Take `C[C@@H](COC(=O)N1CCC(n2c(N)nc3ccccc32)CC1)N(Cc1ccccc1)Cc1ccccc1` [Compound 177, (S)-2-(dibenzylamino)propyl 4-(2-amino-1H-benzo[d]imidazol-1-yl)piperidine-1-carboxylate]: the IC50 is 3.8 µM.

Turning to `O=C(Oc1ccc(N(Cc2ccccc2)Cc2ccccc2)cc1)N1CCC(n2c(=O)[nH]c3ccccc32)CC1` [Compound 178, 4-(dibenzylamino)phenyl 4-(1,2-dihydro-2-oxobenzo[d]imidazol-3-yl)piperidine-1-carboxylate], the IC50 worked out at 1.3 µM.

With `C[C@@H](COC(=O)N1CCC(c2cccc3[nH]c(=O)[nH]c23)CC1)N(Cc1ccccc1)Cc1ccccc1` [Compound 179, (S)-2-(dibenzylamino)propyl 4-(2-oxo-2,3-dihydro-1H-benzo[d]imidazol-4-yl)piperidine-1-carboxylate], the IC50 was 3.25 µM.

As for `O=C(OCCCCCCN(Cc1ccccc1)Cc1ccccc1)N1CCC(n2c(=O)[nH]c3ccccc32)CC1` [Compound 180, 6-(dibenzylamino)hexyl 4-(1,2-dihydro-2-oxobenzo[d]imidazol-3-yl)piperidine-1-carboxylate], the IC50 came out at 2 µM.

Consider `O=C(OCc1ccccc1)N1CCC(n2c(=O)[nH]c3ccccc32)CC1` [Compound 181, Benzyl 4-(1,2-dihydro-2-oxobenzo[d]imidazol-3-yl)piperidine-1-carboxylate], for which the IC50 was 0.3 µM.

With `O=C(OCC1CCCCN1Cc1ccccc1)N1CCC(n2c(=O)[nH]c3ccccc32)CC1` (centres unmarked) [Compound 182, (1-benzylpiperidin-2-yl)methyl 4-(1,2-dihydro-2-oxobenzo[d]imidazol-3-yl)piperidine-1-carboxylate], the IC50 amounted to 5 µM.

With `O=C(OC[C@H](Cc1ccccc1)N(Cc1ccccc1)Cc1ccccc1)N1CCC(N(c2ccccc2)S(=O)(=O)c2ccc(C(F)(F)F)cc2)CC1` [Compound 183, (S)-2-(dibenzylamino)-3-phenylpropyl 4-(N-phenyl-4-(trifluoromethyl)phenylsulfonamido)piperidine-1-carboxylate], the IC50 stood at 3.1 µM.

For `C[C@@H](COC(=O)N1CCC(n2c(=O)[nH]c3ccccc32)CC1)N(Cc1ccccc1)Cc1ccc(F)cc1` [Compound 184, (S)-2-(benzyl(4-fluorobenzyl)amino)propyl 4-(2-oxo-2,3-dihydro-1H-benzo[d]imidazol-1-yl)piperidine-1-carboxylate hydrochloride], the IC50 amounted to 3.3 µM.

With `CC(C)(C)OC(=O)N(CCOC(=O)N1CCC(n2c(=O)[nH]c3ccccc32)CC1)Cc1ccccc1` [Compound 185, 2-(benzyl(tert-butoxycarbonyl)amino)ethyl 4-(2-oxo-2,3-dihydro-1H-benzo[d]imidazol-1-yl)piperidine-1-carboxylate], the IC50 is 2 µM.

On to `Cn1c(CN(CCCOC(=O)N2CCC(n3c(=O)[nH]c4ccccc43)CC2)Cc2ccccc2)cc2ccccc21` [Compound 186, 3-(benzyl((1-methyl-1H-indol-2-yl)methyl)amino)propyl 4-(2-oxo-2,3-dihydro-1H-benzo[d]imidazol-1-yl)piperidine-1-carboxylate hydrochloride], for which the IC50 came out at 4.8 µM.

These data come from US20100292214A1, “Compounds with Antiparasitic Activity, Applications thereof to the Treatment of Infectious Diseases Caused by Apicomplexans” (commissariat a l'Energie Atomique, priority 2007, published 2010).
